In patent US8034548B2, “Methods and materials for assessing prostate cancer therapies” (The Regents of the University of California, priority 2003, dated 2011):

Key:
LNCaP-AR cells [1] = assay: in vitro growth in low androgen concentrations, AR-overexpressing cells; format: cell-based, human; conditions: compared with 100 pM needed by vector cells
Description: (§1) To determine if increased AR protein concentration plays a causal role in the HS-to-HR transition, we introduced an epitope-tagged wildtype AR cDNA by retrovirus infection into HS LNCaP human prostate cancer cells. A three-fold increase in AR levels in LNCaP-AR cells mimics the expression difference observed in the LNCaP HS/HR pair studied in the microarray experiment. To test whether increased AR expression causes the HS-to-HR transition, we designed two in vitro assays to mimic the clinical circumstances of HR disease. […] In contrast, LNCaP-AR cells grew in at least 80% lower concentrations of R1881.
(§2) Details of typical in vitro and in vivo growth experiments are as follows: LNCaP (ATCC) and LAPC4 cells were maintained in Iscove's medium supplemented with 10% fetal bovine serum. […] In vivo tumorigenicity was measured by injection of 5×10^5 LAPC4 or 1×10^6 LNCaP cells in 100 μl of Matrigel (Collaborative Biomedical) subcutaneously into the flanks of intact or castrated male SCID mice. Tumor size was measured weekly in three dimensions using caliber as described.^26 AR knockdown was performed by infection of HR LAPC4 with shRNA AR lentivirus. Tumors which grew in castrated mice were explanted, and analyzed by flow cytometry for the percentage of GFP-positive cells. […]

[2] = system: LNCaP cells infected with the empty vector; assay: in vitro growth in low androgen concentrations, vector control cells; format: cell-based, human; conditions: failed to grow unless supplemented
Description: as §1, §2

LNCaP-AR cells [3] = assay: Affymetrix U133A microarray of induced genes, AR-overexpressing cells; format: cell-based, human
[4] = target: AR transcription complex on the promoters of PSA and KLK2 (Homo sapiens, UniProt P10275, T878A)
AR transcription complex on the promoters of PSA and KLK2, sequence (P10275 whole entry T878A, the tested form may be a part, one chain of several): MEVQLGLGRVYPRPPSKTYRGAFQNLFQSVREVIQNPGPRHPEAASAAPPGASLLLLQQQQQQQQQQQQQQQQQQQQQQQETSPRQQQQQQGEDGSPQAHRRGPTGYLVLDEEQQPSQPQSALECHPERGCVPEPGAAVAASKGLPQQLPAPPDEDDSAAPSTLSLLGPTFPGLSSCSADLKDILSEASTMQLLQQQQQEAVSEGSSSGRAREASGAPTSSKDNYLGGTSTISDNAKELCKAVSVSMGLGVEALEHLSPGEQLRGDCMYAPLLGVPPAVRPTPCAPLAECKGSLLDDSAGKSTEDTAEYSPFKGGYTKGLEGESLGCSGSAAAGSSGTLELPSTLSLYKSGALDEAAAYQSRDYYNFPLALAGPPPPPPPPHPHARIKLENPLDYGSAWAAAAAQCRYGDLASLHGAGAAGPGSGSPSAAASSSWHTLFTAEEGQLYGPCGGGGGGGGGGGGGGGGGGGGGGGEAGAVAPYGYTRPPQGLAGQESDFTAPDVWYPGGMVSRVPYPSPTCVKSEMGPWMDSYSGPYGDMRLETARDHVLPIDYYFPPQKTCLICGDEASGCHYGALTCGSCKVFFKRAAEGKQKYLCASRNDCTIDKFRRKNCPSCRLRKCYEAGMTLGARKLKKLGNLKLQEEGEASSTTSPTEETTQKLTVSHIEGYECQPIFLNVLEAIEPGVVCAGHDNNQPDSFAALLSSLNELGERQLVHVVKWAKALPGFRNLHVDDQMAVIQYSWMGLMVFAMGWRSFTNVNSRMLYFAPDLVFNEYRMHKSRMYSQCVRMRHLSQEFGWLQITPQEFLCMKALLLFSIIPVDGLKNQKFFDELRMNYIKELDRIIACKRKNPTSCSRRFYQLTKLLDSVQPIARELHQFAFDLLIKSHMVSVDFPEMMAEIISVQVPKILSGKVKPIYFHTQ
Experimental: Soluble chromatin was prepared after formaldehyde crosslinking and sonication. Specific IgGs against AR, N—CoR, PolII, Ac—H3/4, SRC1, TIF2, AIB1, and PCAF were used to immunoprecipitate protein-bound DNA fragments.

C[C@]1(O)CC[C@H]2[C@@H]3CCC4=CC(=O)CCC4=C3C=C[C@@]21C [R1881]
lower concentration of R1881 in which cells grew (LNCaP-AR cells [1]): at least 80% | R1881 supplement needed for growth in steroid-depleted, charcoal-stripped serum [2]: 100 pM | total number of androgen-regulated genes (LNCaP-AR cells [3]; increasing doses of R1881): > 600 probe sets | recruitment of AR and polymerase II to PSA and KLK2 promoters [4]: AR and polymerase II were recruited to both promoters regardless of AR level

CC(O)(CS(=O)(=O)c1ccc(F)cc1)C(=O)Nc1ccc(C#N)c(C(F)(F)F)c1 (centres unmarked) [bicalutamide]
subset of the total number of androgen-regulated genes induced (LNCaP-AR cells [3]; LNCaP-AR, 10 μM bicalutamide): < 10%
